Results taken from PMC10439952, “JT002, a small molecule inhibitor of the NLRP3 inflammasome for the treatment of autoinflammatory disorders” (Scientific Reports, 2023).

Key:
Type in all cases: cell-based
NLRP3 inflammasome [1] = target: T1, NLRP3 inflammasome (Mus musculus, UniProt Q8R4B8); assay: Inhibition of IL-1β production in mouse BMDMs stimulated by LPS + cholesterol crystals; design: host or cells: mouse PBMCs; mouse bone-marrow derived macrophages; mouse whole blood (C57BL/6 in the ex vivo study); conditions: Mouse BMDM, read-out: Geo Av IC50, IL-1β
Protocol: (§1) Inflammasome activation and whole blood assays were essentially carried out as described earlier. Details can be found in the supplementary information section accompanying this publication. A protocol for blood draws from healthy volunteers and use of the blood in preclinical assays was approved by Western Institutional Review Board, Inc (Puyallup, WA, USA). Informed consent was obtained from each donor prior to the first blood draw.
(§2) Cell viability was determined by addition of an equal volume of CellTiter-Glo® 2.0 reagent (Promega) to the remaining cells/supernatant in each well. Intracellular Caspase-1 activity was measured using the Caspase-Glo® assay (Promega) according to the manufacturer’s instructions. The biochemical capsase-1 assay was conducted at Reaction Biology Corporation (Malvern, USA). Human IL-1β, IL-1α, and TNFα and mouse IL-1β were measured in cell culture supernatants using homogeneous time resolved fluorescence assay kits (HTRF, Cisbio, Codolet, France). Human IL-18 was measured in cell culture supernatants using an ELISA kit (R&D Systems, Minneapolis, MN, USA). Plasma IL-1β concentrations were determined by Quantikine® ELISA (R&D Systems, Minneapolis, MN).
(§3) 4H). MS: m/z 433.1 (M+H+). […]

AIM2 inflammasome = target: T2, AIM2 inflammasome (Mus musculus, UniProt Q91VJ1); assay: IL-1β production in mouse BMDMs after AIM2 activation (LPS + poly(dA:dT)); conditions: mBMDMs, concentrations up to 10 µM
T2 construct: host or cells: mouse BMDMs, LPS + transfected poly(dA:dT)
T2 sequence (Q91VJ1 1-354): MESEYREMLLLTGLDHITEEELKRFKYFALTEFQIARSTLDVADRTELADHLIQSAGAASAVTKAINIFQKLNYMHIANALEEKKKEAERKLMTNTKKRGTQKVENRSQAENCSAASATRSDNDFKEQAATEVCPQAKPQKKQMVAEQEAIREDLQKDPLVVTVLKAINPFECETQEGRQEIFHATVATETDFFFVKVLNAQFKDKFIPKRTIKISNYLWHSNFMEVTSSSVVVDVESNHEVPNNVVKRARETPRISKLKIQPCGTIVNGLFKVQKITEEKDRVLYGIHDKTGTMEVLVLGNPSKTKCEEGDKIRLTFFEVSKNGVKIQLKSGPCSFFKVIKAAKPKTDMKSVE
Protocol: as §2, §3
flagellin, prepared in Opt iMEM and combined with Lipofectamine 2000. […] After priming Nlrp3 -/- mBMDMs with 100 ng/mL of LPS for 3- 5 h, cells were exposed to 100 ng/mL L18- MDP and incubated overnight.At the end of the incubation period of the assays above, plates were briefly centri fuged and hal f of the cell culture supern atant remo ved and either analysed i mmediately or stored at - 80°C for subs equent cytokine […]

NLRP3 inflammasome [2] = target: T1, NLRP3 inflammasome; assay: Inhibition of IL-1β production in mouse PBMCs stimulated by LPS + ATP; design: host or cells: mouse PBMCs; mouse bone-marrow derived macrophages; mouse whole blood (C57BL/6 in the ex vivo study); conditions: Mouse PBMC, read-out: Geo Av IC50, IL-1β
Protocol: as §1, §2, §3

T1 sequence (Q8R4B8 whole entry): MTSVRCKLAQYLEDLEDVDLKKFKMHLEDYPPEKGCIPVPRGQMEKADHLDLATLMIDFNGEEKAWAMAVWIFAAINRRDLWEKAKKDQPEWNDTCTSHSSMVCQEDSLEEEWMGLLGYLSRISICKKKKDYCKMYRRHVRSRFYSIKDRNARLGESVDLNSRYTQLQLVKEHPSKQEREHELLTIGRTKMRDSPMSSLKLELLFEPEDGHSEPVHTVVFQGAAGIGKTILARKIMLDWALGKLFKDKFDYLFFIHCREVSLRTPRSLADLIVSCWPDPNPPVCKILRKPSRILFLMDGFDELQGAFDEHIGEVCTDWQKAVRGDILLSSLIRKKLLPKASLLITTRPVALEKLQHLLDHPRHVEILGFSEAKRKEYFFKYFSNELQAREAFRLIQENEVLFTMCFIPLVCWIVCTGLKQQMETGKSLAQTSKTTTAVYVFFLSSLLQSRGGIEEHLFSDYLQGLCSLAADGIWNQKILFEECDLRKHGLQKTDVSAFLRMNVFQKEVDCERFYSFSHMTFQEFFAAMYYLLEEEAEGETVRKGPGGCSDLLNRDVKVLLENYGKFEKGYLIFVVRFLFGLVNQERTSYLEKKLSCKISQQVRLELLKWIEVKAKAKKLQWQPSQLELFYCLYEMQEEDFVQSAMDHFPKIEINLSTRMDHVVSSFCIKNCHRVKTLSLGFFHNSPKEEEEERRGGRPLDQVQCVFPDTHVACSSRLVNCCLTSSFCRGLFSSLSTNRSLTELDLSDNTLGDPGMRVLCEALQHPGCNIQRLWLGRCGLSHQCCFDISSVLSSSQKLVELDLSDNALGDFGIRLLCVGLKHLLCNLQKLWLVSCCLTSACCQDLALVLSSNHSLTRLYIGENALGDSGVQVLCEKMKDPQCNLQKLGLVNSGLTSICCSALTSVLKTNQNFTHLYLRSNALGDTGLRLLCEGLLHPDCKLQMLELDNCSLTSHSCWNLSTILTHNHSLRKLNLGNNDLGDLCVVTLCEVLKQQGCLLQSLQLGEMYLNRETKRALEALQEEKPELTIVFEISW

- IC50 (NLRP3 inflammasome [1]): 2 nM
- inhibition of IL-1β production after AIM2 activation (AIM2 inflammasome): no inhibition of IL-1β production
- IC50 (NLRP3 inflammasome [2]): 7 nM
SMILES: CO[C@@H]1COc2c(S(=O)(=O)NC(=O)Nc3c4c(cc5c3CCC5)CCC4)cnn2C1 [JT002]
